Where two headings read alike, the source gives them in different places.
How the values were obtained:
PKCδ-GFP fusion protein = biological target: T1, PKCδ-GFP fusion protein (Homo sapiens, UniProt Q05655); assay: PKC translocation assay, PKCδ; format: cell-based, Rat; details: RBL cells, 200 nM, confocal microscopy
T1 construct: The DNA encoding C-terminal GFP-tagged full-length PKCδ was electroporated into the cells; expressed in transfected cells; host or cells: Rat basophilic leukemia 2H3 (RBL) cells
T1 sequence (Q05655 whole entry, the tested form may be a part): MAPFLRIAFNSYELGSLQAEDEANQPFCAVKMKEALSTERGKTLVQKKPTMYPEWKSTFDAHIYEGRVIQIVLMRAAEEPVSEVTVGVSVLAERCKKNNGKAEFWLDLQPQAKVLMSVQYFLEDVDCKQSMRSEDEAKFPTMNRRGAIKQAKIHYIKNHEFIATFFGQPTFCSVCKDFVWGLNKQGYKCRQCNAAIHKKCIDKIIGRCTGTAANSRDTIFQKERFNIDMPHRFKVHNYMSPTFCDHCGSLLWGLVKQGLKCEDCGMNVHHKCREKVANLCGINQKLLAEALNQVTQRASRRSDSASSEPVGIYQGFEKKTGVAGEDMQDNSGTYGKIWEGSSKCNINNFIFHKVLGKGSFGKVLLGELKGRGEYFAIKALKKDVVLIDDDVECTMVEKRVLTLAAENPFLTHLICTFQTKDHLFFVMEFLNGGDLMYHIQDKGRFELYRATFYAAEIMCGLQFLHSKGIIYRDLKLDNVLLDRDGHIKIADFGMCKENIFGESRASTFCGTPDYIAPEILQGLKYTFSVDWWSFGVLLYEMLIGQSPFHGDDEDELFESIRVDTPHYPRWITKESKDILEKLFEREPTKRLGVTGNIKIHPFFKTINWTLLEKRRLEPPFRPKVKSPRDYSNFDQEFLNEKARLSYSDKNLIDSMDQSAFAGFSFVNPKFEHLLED
Protocol: (§1) Functional activity of analogs were addressed in a PKC translocation assay. […] This translocation can be observed and measured in real time with confocal microscopy using the fusion protein PKC-GFP (green fluorescent protein) as a reporter. Translocation assays were performed on the novel PKC isozymes δ and ε and on the conventional isozyme PKCβ1.
(§2) Rat basophilic leukemia 2H3 (RBL) cells were cultured in Dulbecco's Modified Eagle Medium (DMEM) (Invitrogen Life Technologies, Gibco) containing 20% fetal calf serum with 50 units/ml penicillin, […] and 4 mM glutamine (Gibco). Cells were maintained at 37° C. in an atmosphere of 10% CO2. Two hours prior to transfection, cells were plated onto sterile glass coverslips. […]
(§3) Fluorescence images were obtained using the 488 nm excitation line of a laser scanning confocal microscope (Pascal, Zeiss) and emission was collected through a 505-550 nm band pass filter. […]
(§4) Images were exported as 12 bit files and analyzed using Metamorph data analysis software (Universal Imaging). To monitor the translocation of PKCδ-GFP, a small region of interest was selected in the cytosol of each cell and fluorescence intensity values graphed against time following background subtraction and normalization. […]

[1] = biological target: T2, PKCε (PKC-GFP fusion protein) (Homo sapiens, UniProt Q02156); assay: PKC translocation assay, PKCε; format: cell-based, Rat; details: RBL cells, 200 nM, confocal microscopy
T2 construct: expressed in transfected cells; host or cells: Rat basophilic leukemia 2H3 (RBL) cells
T2 sequence (Q02156 whole entry, the tested form may be a part): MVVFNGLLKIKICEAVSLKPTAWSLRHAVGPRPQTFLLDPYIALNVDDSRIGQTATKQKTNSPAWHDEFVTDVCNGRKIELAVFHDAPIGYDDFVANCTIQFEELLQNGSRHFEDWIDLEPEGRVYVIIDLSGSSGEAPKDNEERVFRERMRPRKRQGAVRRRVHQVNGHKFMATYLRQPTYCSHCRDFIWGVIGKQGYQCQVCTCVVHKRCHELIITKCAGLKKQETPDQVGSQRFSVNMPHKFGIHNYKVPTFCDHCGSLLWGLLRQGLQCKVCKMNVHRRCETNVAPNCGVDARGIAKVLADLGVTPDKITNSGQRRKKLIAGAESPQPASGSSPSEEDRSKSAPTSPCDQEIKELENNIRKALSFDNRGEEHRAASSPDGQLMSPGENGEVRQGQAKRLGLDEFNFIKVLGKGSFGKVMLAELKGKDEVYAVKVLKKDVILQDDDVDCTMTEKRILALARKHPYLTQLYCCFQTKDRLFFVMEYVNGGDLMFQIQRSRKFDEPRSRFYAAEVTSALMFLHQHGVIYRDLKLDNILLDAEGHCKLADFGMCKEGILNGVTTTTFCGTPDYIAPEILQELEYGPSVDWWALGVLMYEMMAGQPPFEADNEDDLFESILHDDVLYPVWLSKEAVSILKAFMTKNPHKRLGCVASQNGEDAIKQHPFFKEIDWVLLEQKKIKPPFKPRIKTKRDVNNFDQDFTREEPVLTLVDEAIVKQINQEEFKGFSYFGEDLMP
Protocol: as §1, §2, §3, §4

[2] = biological target: PKC purified from the rat brain; assay: PKC binding assay; details: for Ki: competitive inhibition of [3H]-PDBu binding, read-out: PKC Binding constant
Protocol: Filters (Whatman GF-B, 21 mm dia.) are soaked for 1 hour in a solution containing deionized water (97 mL), and 10% polyethyleneamine (3 mL). An assay buffer solution is prepared by the combining of TRIS (1M, pH 7.4, 1 mL), KCl (1M, 2 μL), CaCl2 (0.1M, 30 μL), bovine serum albumin (40 mg), and diluting to 20 mL with deionized water and stored on ice. Phosphatidyl serine vesicles are prepared by the addition of phosphatidyl serine (10 mg/mL in chloroform, 0.4 mL) to a glass test tube followed by removal of the chloroform under a stream of nitrogen (5 min). To this viscous liquid is added a portion of the prepared assay buffer (4 mL) and the resulting mixture is then transferred to a plastic tube. This tube is then sonicated (Branson Sonifier 250, power=6, 40% duty cycle) four times for 30 sec. with a 30 sec. rest in-between sonications. The resulting solution is stored over ice. PKC is prepared by the addition of cooled assay buffer (10 mL) to PKC (25 mL) purified from the rat brain by the method of Mochly-Rosen et al. (J. Biol. Chem. 1987, 262, 2291) and then stored on ice. Stock solutions of compounds are diluted with absolute ethanol in glass in serial fashion.
Each plastic assay incubation tube is made to contain prepared phosphatidyl serine vesicles (60 μL), prepared PKC solution (200 μL) and analog ([…] plus EtOH (20-0 μL) for a total volume of 20 μL). Lastly, tritiated phorbol dibutryate ([3H]-PDBu) (30 nM, 20 μL) is added to each tube. The assay is carried out using 7-10 analog concentrations, each in triplicate. Non-specific binding is measured in 1-3 tubes by the substitution of phorbol myristate acetate (PMA) (1 mM, 5 μL) and EtOH (15 μL) for the analog/EtOH combination. The tubes are incubated at 37° C. for 90 min. and then put on ice for 5 min. Each tube is then filtered separately through a pre-soaked filter disc. The filter is subsequently rinsed with cold 20 mM TRIS buffer (5 mL) dropwise. The filters are then put in separate scintillation vials and Universol® scintillation fluid is added (3 mL). The filters are immediately counted in a scintillation counter (Beckman LS 6000SC). Counts per minute are averaged among three trials at each concentration. The data is then plotted using a least square fit algorithm with the Macintosh version of Kaleidagraph® (Abelbeck Software) and an IC50 (defined as the concentration of analog required to displace half of the specific PDBu binding to PKC) is calculated. The IC50 then allows determination of the Ki for the analog from the equation: Ki=IC50/(1+[PDBu])/Kd of PDBu).

[3] = biological target: T3, PKCβI (PKC-GFP fusion protein) (Homo sapiens, UniProt P05771); assay: PKC translocation assay, PKCβI; format: cell-based, Rat
T3 construct: expressed in transfected cells; host or cells: Rat basophilic leukemia 2H3 (RBL) cells
T3 sequence (P05771 whole entry, the tested form may be a part): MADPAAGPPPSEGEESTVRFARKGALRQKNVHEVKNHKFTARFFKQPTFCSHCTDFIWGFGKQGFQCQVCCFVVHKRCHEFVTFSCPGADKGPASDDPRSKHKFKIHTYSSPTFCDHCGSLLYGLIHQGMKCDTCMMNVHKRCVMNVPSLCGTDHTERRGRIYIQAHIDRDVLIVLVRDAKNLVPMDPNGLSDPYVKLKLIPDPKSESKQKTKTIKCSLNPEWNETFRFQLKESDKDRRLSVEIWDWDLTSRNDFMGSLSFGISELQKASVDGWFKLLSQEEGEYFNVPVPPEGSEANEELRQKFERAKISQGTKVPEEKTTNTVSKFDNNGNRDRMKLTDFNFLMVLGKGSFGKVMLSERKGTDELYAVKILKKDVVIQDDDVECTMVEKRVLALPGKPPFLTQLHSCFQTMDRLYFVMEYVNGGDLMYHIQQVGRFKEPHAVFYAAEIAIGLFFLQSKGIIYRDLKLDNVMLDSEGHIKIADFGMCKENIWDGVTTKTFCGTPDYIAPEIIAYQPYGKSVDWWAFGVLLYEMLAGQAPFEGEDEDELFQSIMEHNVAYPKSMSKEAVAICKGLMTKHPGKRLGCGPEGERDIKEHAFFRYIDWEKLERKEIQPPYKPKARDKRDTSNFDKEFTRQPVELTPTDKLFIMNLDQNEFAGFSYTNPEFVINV
Protocol: as §1, §2, §3, §4

P388 cell line = assay: P388 murine lymphocytic leukemia cell assay; format: cell-based; details: Mus musculus, P388, 120 h, read-out: P388 Assay ED50
Protocol: Cells from a P388 cell line (CellGate, Inc., Sunnyvale, Calif.) are grown in RPMI 1640 cell medium containing fetal calf serum (10%), L-glutamine, penicillin, streptomycin and are split twice weekly. All compounds are first diluted with DMSO. Later serial dilutions are done with a phosphate buffer solution (HYQ DPBS modified phosphate buffered saline). All dilutions are done in glass vials and the final DMSO concentration is always below 0.5% by volume. Final two-fold dilutions are done in a 96 well plate using cell media so that each well contains 50 μL. All compounds are assayed in quadruplicate over 12 concentrations. Cell concentration is measured using a hemacytometer and the final cell concentration is adjusted to 1×10^4 cells/mL with cell medium. The resulting solution of cells (50 μL) is then added to each well and the plates are incubated for 5 days in a 37° C., 5% CO2, humidified incubator (Sanyo CO2 incubator). MTT solution (3-[4,5-dimethylthiazol-2-yl]-2,5-diphenyltetrazolium bromide, 10 μL) is then added to each well and the plates are re-incubated under identical conditions for 2 h. To each well is then added acidified isopropanol (150 μL of i-PrOH solution containing 0.05 N HCl) and mixed thoroughly. The plates are then scanned at 595 nm and the absorbances are read (Wallac Victor 1420 Multilabel Counter). The resulting data is then analyzed to determine an ED50 value using the Prism software package (GraphPad).

PKCδ-C1B = biological target: T4, PKCδ-C1B (Mus musculus, UniProt P28867); assay: PKCδ-C1B assay; format: binding
T4 construct: made in house
T4 sequence (P28867 231-281 limits assumed): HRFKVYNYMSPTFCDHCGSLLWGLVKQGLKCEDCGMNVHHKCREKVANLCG
Protocol: Phosphatidyl serine vesicles are prepared by the addition of phosphatidyl serine (10 mg/mL in chloroform, 0.4 mL) to a glass test tube followed by removal of the chloroform under a stream of nitrogen (5 min). […] The resulting solution is stored over ice. […] Stock solutions of compounds are diluted with absolute ethanol in glass in serial fashion. […] The tubes are incubated at 37° C. for 90 min. and then put on ice for 5 min. Each tube is then filtered separately through a pre-soaked filter disc. […] The filter is subsequently rinsed with cold 20 mM TRIS buffer (5 mL) dropwise. […] The filters are immediately counted in a scintillation counter (Beckman LS 6000SC). Counts per minute are averaged among three trials at each concentration.

[4] = biological target: PKC purified from rat brain; assay: Protein kinase C (isozyme mix) assay; format: binding; details: 37° C., 90 min, read-out: Kd of [H^3]-PDBu
Protocol: In one approach, anticancer activity of compounds of the invention can be assessed using the protein kinase C assay detailed in Example 5. In this assay, Ki values are determined for analogues based on competition with radiolabeled phorbol 12,13-dibutyrate for binding to a mixture of PKC isoenzymes. PKC enzymes are implicated in a variety of cellular responses which may be involved in the activity of the bryostatins.
The following procedure was used, based on a modification of a previous procedure described by Tanaka et al. (1986). Filters (Whatman GF-B, 21 mm diam.) are soaked for 1 h in a solution containing deionized water (97 mL), and 10% polyethyleneamine (3 mL). A filtering buffer solution containing TRIS (1M, pH 7.4, 10 mL) and water (490 mL) is prepared and cooled on ice. […] Non-specific binding is measured in 1-3 tubes by the substitution of phorbol myristate acetate (PMA) (1 mM, 5 μL) and EtOH (15 μL) for the analogue/EtOH combination. […] The filters are immediately counted in a scintillation counter (Beckman LS 6000SC). […] The data is then plotted using a least squares fit algorithm with the Macintosh version of Kaleidagraph© (Abelbeck Software) and an IC50 (defined as the concentration of analogue required to displace half of the specific PDBU binding to PKC) is calculated. […]

SMILES: CCCCCCCC(=O)OC1C(=CC(=O)OC)CC2CC(CO)OC(=O)CC(O)CC3CCCC(CC4COC(C=CC(C)(C)C1(O)O2)O4)O3 (stereo not shown) [Formula 18B.1]
- translocation of PKCδ from the cytosol to cellular membranes (PKCδ-GFP fusion protein): rapid and complete
- translocation of PKCε from the cytosol to cellular membranes [1]: rapid and complete
- Ki [2]: 5.4 nM
- ability to translocate PKCβI relative to bryostatin 1 [3]: significantly reduced ability to translocate
- translocation of PKCβI from the cytosol to cellular membranes ([3]; RBL cells, 200 nM, confocal microscopy): reduced

SMILES: C=CCC1C[C@H]2CCOCC[C@@H](O)CC(=O)O[C@@H](CO)C[C@@H]3C/C(=C\C(=O)OC)[C@H](OC(=O)CCCCCCC)[C@@](O)(O3)C(C)(C)/C=C/[C@@H](O1)O2 (stereo partly shown) [Formula 20A]
- Ki [2]: 2.6 nM

SMILES: C=CCC1C[C@H]2C[C@H]3CCC[C@@H](C[C@@H](O)CC(=O)O[C@@H](CO)C[C@@H]4C/C(=C\C(=O)OC)[C@H](OC(=O)CCCCCCC)[C@@](O)(O4)C(C)(C)/C=C/[C@@H](O1)O2)O3 (stereo partly shown) [Formula 22A]
- Ki [2]: 0.67 nM

SMILES: COC(=O)/C=C1\C[C@H]2C[C@H]([C@@H](C)O)OC(=O)C[C@H](O)C[C@@H]3CCC[C@H](C[C@@H]4CCO[C@H](/C=C/C(C)(C)[C@](O)(O2)[C@H]1OC(C)=O)O4)O3 [Formula 702.2]
- EC50 (P388 cell line; 5 days incubation, MTT): 181 nM

SMILES: CCCCCCC(=O)O[C@H]1/C(=C/C(=O)OC)C[C@H]2C[C@H]([C@@H](C)O)OC(=O)C[C@H](O)C[C@@H]3CCC[C@H](C[C@@H]4CCO[C@H](/C=C/C(C)(C)[C@]1(O)O2)O4)O3 [Formula 702.3]
- EC50 (P388 cell line): 38 nM
- Ki (PKCδ-C1B): 35 nM

SMILES: CCCC(=O)O[C@@H]1[C@@H](C)[C@@]2(O)[C@@H](C=C(CO)C[C@]3(O)C(=O)C(C)=C[C@@H]23)[C@@H]2C(C)(C)[C@]12OC(=O)CCC [Phorbol dibutyrate, phorbol 12,13-dibutyrate, reference compound]
- Kd (PKCδ-C1B; Kd value): 1.7 nM

SMILES: CCCC(=O)O[C@@H]1[C@@H](C)[C@@]2(O)[C@@H](C=C(CO)C[C@]3(O)C(=O)C(C)=C[C@@H]23)[C@@H]2C(C)(C)[C@]12OC(=O)CCC [[3H]—PDBu, tritiated phorbol 12,13-dibutyrate, reference compound]
- Kd ([2]; read-out: PKC Binding constant (Kd of [3H]-PDBu)): 1.17 nM
- Kd [4]: 1.55 nM

Reference: patent publication US8735609B2, “Bryostatin analogues, synthetic methods and uses” (The Board of Trustees of the Leland Stanford Junior …, priority 2007, dated 2014)
